Reference: patent EP0603240B1, “SAFENING HERBICIDAL PYRAZOLYLSULFONYLUREAS” (priority 1991, dated 1993)

Assays:
Type in all cases: in vivo
[1] = tested on: Giant foxtail (Setaria fabergi); assay: Example 23, Procedure II: Antidote Nos. 15 and 17-21 against Herbicide No. 1, 13 days after application
Protocol: (§1) Containers were filled and compacted with a fumigated silt loam top soil to a depth of about 1.3 cm from the top of the container. A first container was designated as an untreated control, a second container was designated as a herbicide control, and a third container was designated as a herbicide + antidote test container. Each of the containers was seeded with a crop species. A measured amount of herbicide dispersed or dissolved in acetone was applied to a measured quantity of soil. To this same quantity of soil treated with herbicide, there was added a measured amount of antidote dispersed or dissolved in acetone. The quantity of soil treated with the herbicide and antidote was thoroughly mixed to incorporate the herbicide and antidote in the soil uniformly. The seed bed in the third container of soil was covered with the soil treated with the herbicide and antidote and the container was leveled. For each test series, the seed beds of the first and second containers were likewise covered by soil layers. the cover layer of the first container was not treated with herbicide or antidote.
(§2) The containers were then placed on a bench in a greenhouse and sub-irrigated as required for the duration of the test. […] Plant response is measured in terms of percent injury. Antidote efficacy is indicated as the difference in plant injury by the herbicide(s) without the antidote and with the antidote.
(§3) This procedure is the same as Procedure I, but modified in the manner that after incorporation of the chemicals (herbicide and antidote) the containers with the covered seedbed were treated with an initial overhead irrigation equivalent to 0.6 cm rainfall, then subsequently sub-irrigated as required on greenhouse benches.
(§4) In other greenhouse tests, using Procedure II described above, the safening efficacy of Antidote Nos. 15 and 17-21 was evaluated against Herbicide No. 1 in corn in the presence of Giant foxtail (Setaria fabergi) and Velvetleaf (Abutilon theophrasti) as representative annual monocotyledonous and dicotyledonous weeds, respectively.
(§5) Test results are shown in Tables 23A and 23B wherein the indicated plant inhibition represents the average of duplicate replications, with observations being made thirteen (13) days after application of the chemicals. Giant foxtail and Velvetleaf are represented by the symbols "GFT" and "VL", respectively. The data in Table 23A show the test results using the antidotes at 2.24 kg/ha, whereas in Table 23B, the antidotal rate was reduced to 0.56 kg/ha.

corn [2] = assay: as above; details: for % Inhibition Corn: 13 days after application
Protocol: as §1, §2, §3, §4, §5

[3] = tested on: velvetleaf (Abutilon theophrasti); assay: as above
Protocol: as §1, §2, §3, §4, §5

corn [4] = assay: Example 24, Procedure II: Herbicide No. 1 + co-herbicides Nos. 4, 6, 7, 12 with Antidote Nos. 15 and 17-21
Method in brief: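 Greenhouse pots, herbicide No. 1 plus co-herbicides and antidote in acetone incorporated into silt loam soil covering the corn seed bed, with giant foxtail and velvetleaf; initial overhead irrigation equal to 0.6 cm rainfall, then sub-irrigation. Antidote at 2.24 kg/ha; percent injury read 13 days after application, duplicate average.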

[5] = Table 23A, Herb. No. 1 0.14 Kg/Ha + antidote 2.24 Kg/ha
[6] = Table 23A, Herb. No. 1 0.28 Kg/Ha + antidote 2.24 Kg/ha
[7] = Table 23A, Herb. No. 1 0.56 Kg/Ha + antidote 2.24 Kg/ha
[8] = Table 23A, Herb. No. 1 1.12 Kg/Ha + antidote 2.24 Kg/ha
[9] = Table 23B, Herb. No. 1 0.14 Kg/Ha + antidote 0.56 Kg/ha
[10] = Table 23B, Herb. No. 1 0.28 Kg/Ha + antidote 0.56 Kg/ha
[11] = Table 23B, Herb. No. 1 0.56 Kg/Ha + antidote 0.56 Kg/ha
[12] = Table 23B, Herb. No. 1 1.12 Kg/Ha + antidote 0.56 Kg/ha
[13] = Herb. No. 1 0.07 Kg/ha + Co-Herb. No. 4 1.12 Kg/ha + antidote 2.24 Kg/ha
[14] = Herb. No. 1 0.07 Kg/ha + Co-Herb. No. 6 0.14 Kg/ha + antidote 2.24 Kg/ha
[15] = Herb. No. 1 0.07 Kg/ha + Co-Herb. No. 7 0.28 Kg/ha + antidote 2.24 Kg/ha
[16] = Herb. No. 1 0.07 Kg/ha + Co-Herb. No. 12 0.28 Kg/ha + antidote 2.24 Kg/ha
[17] = Herb. No. 1 0.14 Kg/ha + Co-Herb. No. 4 1.12 Kg/ha + antidote 2.24 Kg/ha
[18] = Herb. No. 1 0.14 Kg/ha + Co-Herb. No. 6 0.14 Kg/ha + antidote 2.24 Kg/ha
[19] = Herb. No. 1 0.14 Kg/ha + Co-Herb. No. 7 0.28 Kg/ha + antidote 2.24 Kg/ha
[20] = Herb. No. 1 0.14 Kg/ha + Co-Herb. No. 12 0.28 Kg/ha + antidote 2.24 Kg/ha
[21] = Herb. No. 1 0.28 Kg/ha + Co-Herb. No. 4 1.12 Kg/ha + antidote 2.24 Kg/ha
[22] = Herb. No. 1 0.28 Kg/ha + Co-Herb. No. 6 0.14 Kg/ha + antidote 2.24 Kg/ha
[23] = Herb. No. 1 0.28 Kg/ha + Co-Herb. No. 7 0.28 Kg/ha + antidote 2.24 Kg/ha
[24] = Herb. No. 1 0.28 Kg/ha + Co-Herb. No. 12 0.28 Kg/ha + antidote 2.24 Kg/ha
[25] = Herb. No. 1 0.56 Kg/ha + Co-Herb. No. 4 1.12 Kg/ha + antidote 2.24 Kg/ha
[26] = Herb. No. 1 0.56 Kg/ha + Co-Herb. No. 6 0.14 Kg/ha + antidote 2.24 Kg/ha
[27] = Herb. No. 1 0.56 Kg/ha + Co-Herb. No. 7 0.28 Kg/ha + antidote 2.24 Kg/ha
[28] = Herb. No. 1 0.56 Kg/ha + Co-Herb. No. 12 0.28 Kg/ha + antidote 2.24 Kg/ha

CC1COc2ccccc2N1C(=O)C(Cl)Cl (centres unmarked) [compound 17]
% Inhibition GFT [1, 5]: 25%
% Inhibition GFT [1, 6]: 25%
% Inhibition GFT [1, 7]: 60%
% Inhibition GFT [1, 8]: 70%
% Inhibition GFT [1, 9]: 15%
% Inhibition GFT [1, 10]: 40%
% Inhibition GFT [1, 11]: 55%
% Inhibition GFT [1, 12]: 65%
% Inhibition Corn (corn [2]; [5]): 0%
% Inhibition Corn (corn [2]; [6]): 0%
% Inhibition Corn (corn [2]; [7]): 15%
% Inhibition Corn (corn [2]; [8]): 25%
% Inhibition Corn (corn [2]; [9]): 0%
% Inhibition Corn (corn [2]; [10]): 10%
% Inhibition Corn (corn [2]; [11]): 20%
% Inhibition Corn (corn [2]; [12]): 30%
% Inhibition VL [3, 5]: 95%
% Inhibition VL [3, 6]: 85%
% Inhibition VL [3, 7]: 95%
% Inhibition VL [3, 8]: 95%
% Inhibition VL [3, 9]: 90%
% Inhibition VL [3, 10]: 90%
% Inhibition VL [3, 11]: 90%
% Inhibition VL [3, 12]: 95%
% Inhibition Corn (corn [4]; [13]): 0%
% Inhibition Corn (corn [4]; [14]): 5%
% Inhibition Corn (corn [4]; [15]): 0%
% Inhibition Corn (corn [4]; [16]): 5%
% Inhibition Corn (corn [4]; [17]): 0%
% Inhibition Corn (corn [4]; [18]): 0%
% Inhibition Corn (corn [4]; [19]): 0%
% Inhibition Corn (corn [4]; [20]): 5%
% Inhibition Corn (corn [4]; [21]): 5%
% Inhibition Corn (corn [4]; [22]): 15%
% Inhibition Corn (corn [4]; [23]): 5%
% Inhibition Corn (corn [4]; [24]): 5%
% Inhibition Corn (corn [4]; [25]): 20%
% Inhibition Corn (corn [4]; [26]): 15%
% Inhibition Corn (corn [4]; [27]): 15%
% Inhibition Corn (corn [4]; [28]): 20%

CCSC(=O)COC(c1ccccc1)c1ccccc1 [compound 21]
% Inhibition GFT [1, 5]: 10%
% Inhibition GFT [1, 6]: 20%
% Inhibition GFT [1, 7]: 35%
% Inhibition GFT [1, 8]: 70%
% Inhibition GFT [1, 9]: 20%
% Inhibition GFT [1, 10]: 45%
% Inhibition GFT [1, 11]: 50%
% Inhibition GFT [1, 12]: 75%
% Inhibition Corn (corn [2]; [5]): 0%
% Inhibition Corn (corn [2]; [6]): 0%
% Inhibition Corn (corn [2]; [7]): 5%
% Inhibition Corn (corn [2]; [8]): 30%
% Inhibition Corn (corn [2]; [9]): 0%
% Inhibition Corn (corn [2]; [10]): 5%
% Inhibition Corn (corn [2]; [11]): 20%
% Inhibition Corn (corn [2]; [12]): 35%
% Inhibition VL [3, 5]: 85%
% Inhibition VL [3, 6]: 85%
% Inhibition VL [3, 7]: 95%
% Inhibition VL [3, 8]: 95%
% Inhibition VL [3, 9]: 85%
% Inhibition VL [3, 10]: 90%
% Inhibition VL [3, 11]: 90%
% Inhibition VL [3, 12]: 95%
% Inhibition Corn (corn [4]; [13]): 5%
% Inhibition Corn (corn [4]; [14]): 0%
% Inhibition Corn (corn [4]; [15]): 0%
% Inhibition Corn (corn [4]; [16]): 0%
% Inhibition Corn (corn [4]; [17]): 5%
% Inhibition Corn (corn [4]; [18]): 5%
% Inhibition Corn (corn [4]; [19]): 0%
% Inhibition Corn (corn [4]; [20]): 5%
% Inhibition Corn (corn [4]; [21]): 0%
% Inhibition Corn (corn [4]; [22]): 5%
% Inhibition Corn (corn [4]; [23]): 5%
% Inhibition Corn (corn [4]; [24]): 10%
% Inhibition Corn (corn [4]; [25]): 5%
% Inhibition Corn (corn [4]; [26]): 10%
% Inhibition Corn (corn [4]; [27]): 15%
% Inhibition Corn (corn [4]; [28]): 20%

O=C(O)COC(c1ccccc1)c1ccccc1 [compound 18]
% Inhibition GFT [1, 5]: 15%
% Inhibition GFT [1, 6]: 30%
% Inhibition GFT [1, 7]: 65%
% Inhibition GFT [1, 8]: 70%
% Inhibition GFT [1, 9]: 15%
% Inhibition GFT [1, 10]: 20%
% Inhibition GFT [1, 11]: 60%
% Inhibition GFT [1, 12]: 60%
% Inhibition Corn (corn [2]; [5]): 0%
% Inhibition Corn (corn [2]; [6]): 0%
% Inhibition Corn (corn [2]; [7]): 10%
% Inhibition Corn (corn [2]; [8]): 10%
% Inhibition Corn (corn [2]; [9]): 5%
% Inhibition Corn (corn [2]; [10]): 5%
% Inhibition Corn (corn [2]; [11]): 20%
% Inhibition Corn (corn [2]; [12]): 30%
% Inhibition VL [3, 5]: 90%
% Inhibition VL [3, 6]: 95%
% Inhibition VL [3, 7]: 95%
% Inhibition VL [3, 8]: 95%
% Inhibition VL [3, 9]: 90%
% Inhibition VL [3, 10]: 95%
% Inhibition VL [3, 11]: 90%
% Inhibition VL [3, 12]: 95%
% Inhibition Corn (corn [4]; [13]): 5%
% Inhibition Corn (corn [4]; [14]): 0%
% Inhibition Corn (corn [4]; [15]): 0%
% Inhibition Corn (corn [4]; [16]): 0%
% Inhibition Corn (corn [4]; [17]): 5%
% Inhibition Corn (corn [4]; [18]): 0%
% Inhibition Corn (corn [4]; [19]): 10%
% Inhibition Corn (corn [4]; [20]): 0%
% Inhibition Corn (corn [4]; [21]): 5%
% Inhibition Corn (corn [4]; [22]): 5%
% Inhibition Corn (corn [4]; [23]): 5%
% Inhibition Corn (corn [4]; [24]): 10%
% Inhibition Corn (corn [4]; [25]): 10%
% Inhibition Corn (corn [4]; [26]): 20%
% Inhibition Corn (corn [4]; [27]): 10%
% Inhibition Corn (corn [4]; [28]): 15%

COC(=O)COC(c1ccccc1)c1ccccc1 [compound 20]
% Inhibition GFT [1, 5]: 15%
% Inhibition GFT [1, 6]: 35%
% Inhibition GFT [1, 7]: 40%
% Inhibition GFT [1, 8]: 65%
% Inhibition GFT [1, 9]: 15%
% Inhibition GFT [1, 10]: 20%
% Inhibition GFT [1, 11]: 60%
% Inhibition GFT [1, 12]: 75%
% Inhibition Corn (corn [2]; [5]): 0%
% Inhibition Corn (corn [2]; [6]): 0%
% Inhibition Corn (corn [2]; [7]): 0%
% Inhibition Corn (corn [2]; [8]): 15%
% Inhibition Corn (corn [2]; [9]): 0%
% Inhibition Corn (corn [2]; [10]): 5%
% Inhibition Corn (corn [2]; [11]): 20%
% Inhibition Corn (corn [2]; [12]): 40%
% Inhibition VL [3, 5]: 90%
% Inhibition VL [3, 6]: 90%
% Inhibition VL [3, 7]: 85%
% Inhibition VL [3, 8]: 90%
% Inhibition VL [3, 9]: 90%
% Inhibition VL [3, 10]: 90%
% Inhibition VL [3, 11]: 90%
% Inhibition VL [3, 12]: 95%
% Inhibition Corn (corn [4]; [13]): 0%
% Inhibition Corn (corn [4]; [14]): 0%
% Inhibition Corn (corn [4]; [15]): 0%
% Inhibition Corn (corn [4]; [16]): 0%
% Inhibition Corn (corn [4]; [17]): 0%
% Inhibition Corn (corn [4]; [18]): 5%
% Inhibition Corn (corn [4]; [19]): 0%
% Inhibition Corn (corn [4]; [20]): 5%
% Inhibition Corn (corn [4]; [21]): 0%
% Inhibition Corn (corn [4]; [22]): 5%
% Inhibition Corn (corn [4]; [23]): 0%
% Inhibition Corn (corn [4]; [24]): 5%
% Inhibition Corn (corn [4]; [25]): 10%
% Inhibition Corn (corn [4]; [26]): 20%
% Inhibition Corn (corn [4]; [27]): 5%
% Inhibition Corn (corn [4]; [28]): 10%

CC1(C)OC(c2ccco2)CN1C(=O)C(Cl)Cl (centres unmarked) [Antidote No. 15, Oxazolidine, 3-(dichloroacetyl)-5-(2-furanyl)-2,2-dimethyl]
safening of corn, assessment in words (corn [2]; Herbicide No. 1, Tables 23A and 23B): greatly safened corn against the herbicide at all test rates
